Data: US11053213B2, “Pharmaceutical compounds” (ALMAC DISCOVERY LIMITED, priority 2016, dated 2021)

The compounds below were run against USP19 (Homo sapiens (Human), UniProt O94966) (assay: USP19 activity assay (fluorescence polarisation, Ubiquitin-Lys-TAMRA substrate)). Conditions: full-length USP19 2.5 nM, 30 min pre-incubation, Ub substrate 500 nM; average of at least two duplicate experiments.
Type: biochemical

Chain of USP19 (O94966 whole entry): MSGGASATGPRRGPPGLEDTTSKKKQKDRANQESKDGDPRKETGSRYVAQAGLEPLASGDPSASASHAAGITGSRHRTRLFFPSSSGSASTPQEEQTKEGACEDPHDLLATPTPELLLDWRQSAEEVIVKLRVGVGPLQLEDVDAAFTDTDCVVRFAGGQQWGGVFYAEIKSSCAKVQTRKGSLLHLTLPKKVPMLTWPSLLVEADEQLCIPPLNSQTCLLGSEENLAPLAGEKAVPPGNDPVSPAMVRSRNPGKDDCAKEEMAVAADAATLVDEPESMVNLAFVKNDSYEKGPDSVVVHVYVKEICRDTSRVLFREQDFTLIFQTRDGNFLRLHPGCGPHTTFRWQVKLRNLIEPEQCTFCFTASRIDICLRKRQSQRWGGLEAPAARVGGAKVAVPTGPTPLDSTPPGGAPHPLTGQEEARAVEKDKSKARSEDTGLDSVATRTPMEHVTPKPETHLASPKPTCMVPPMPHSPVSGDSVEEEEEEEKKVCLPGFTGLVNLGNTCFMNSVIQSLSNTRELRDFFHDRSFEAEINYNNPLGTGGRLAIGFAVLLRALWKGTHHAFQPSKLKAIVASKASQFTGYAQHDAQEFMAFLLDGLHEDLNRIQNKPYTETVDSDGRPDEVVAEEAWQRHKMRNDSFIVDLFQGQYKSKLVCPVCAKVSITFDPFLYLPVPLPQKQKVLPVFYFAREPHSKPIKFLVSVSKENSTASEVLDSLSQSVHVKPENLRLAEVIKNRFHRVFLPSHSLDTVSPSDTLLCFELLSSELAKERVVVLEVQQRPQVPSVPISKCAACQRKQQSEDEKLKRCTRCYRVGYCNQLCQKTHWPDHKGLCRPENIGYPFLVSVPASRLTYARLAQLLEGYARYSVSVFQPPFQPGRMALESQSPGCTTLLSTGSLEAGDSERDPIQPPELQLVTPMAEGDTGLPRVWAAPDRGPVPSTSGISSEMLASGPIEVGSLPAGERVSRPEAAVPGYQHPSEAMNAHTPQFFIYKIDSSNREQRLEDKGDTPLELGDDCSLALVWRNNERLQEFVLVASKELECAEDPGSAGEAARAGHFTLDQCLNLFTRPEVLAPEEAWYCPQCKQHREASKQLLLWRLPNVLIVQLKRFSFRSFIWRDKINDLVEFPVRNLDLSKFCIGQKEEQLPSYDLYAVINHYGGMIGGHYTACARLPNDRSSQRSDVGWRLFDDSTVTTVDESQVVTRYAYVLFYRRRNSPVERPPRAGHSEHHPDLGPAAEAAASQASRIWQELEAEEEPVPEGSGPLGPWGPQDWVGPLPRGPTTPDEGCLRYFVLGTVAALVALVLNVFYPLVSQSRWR

| Structure (SMILES) | IC50 |
| --- | --- |
| CC(CC1CCCCCC1)C(=O)N1CCC(O)(Cn2cnc(-c3ccccc3F)cc2=O)CC1 (racemic) [Example 58, (R,S)-3-((1-(3-Cycloheptyl-2-methylpropanoyl)-4-hydroxypiperidin-4-yl)methyl)-6-(2-fluorophenyl)pyrimidin-4(3H)-one] | 5 to 50 µM |
| C[C@H](CC(F)(F)F)C(=O)N1CC[C@@](O)(Cn2cc(C(=O)N(C)C)c(-c3ccccc3)cc2=O)C2(CCCC2)C1 [Example 216, 1-(((S)-10-Hydroxy-7-((R)-4,4,4-trifluoro-2-methylbutanoyl)-7-azaspiro[4.5]decan-10-yl)methyl)-N,N-dimethyl-6-oxo-4-phenyl-1,6-dihydropyridine-3-carboxamide] | < 0.5 µM |
| CC(n1cnc(-c2ccccc2)cc1=O)C1(O)CCN(C(=O)[C@H](C)CC2CCCCC2)CC1 (stereo partly drawn) [Example 108, 3-(1-(1-((R)-3-Cyclohexyl-2-methylpropanoyl)-4-hydroxypiperidin-4-yl)ethyl)-6-phenylpyrimidin-4(3H)-one] | 0.5 to 5 µM |
| C[C@H](CC1CCCCC1)C(=O)N1CCC(O)(Cn2cnc(-c3ccc(CO)cc3)cc2=O)C(C)(C)C1 (stereo partly drawn) [Example 139, 3-((1-((R)-3-Cyclohexyl-2-methylpropanoyl)-4-hydroxy-3,3-dimethylpiperidin-4-yl)methyl)-6-(4-(hydroxymethyl)phenyl)pyrimidin-4(3H)-one] | < 0.5 µM |
| CC(CC(=O)N1CCC(O)(Cn2cc(C(=O)N(C)C)c(-c3ccccc3)cc2=O)C2(CCCC2)C1)C(F)(F)F (stereo not drawn) [Example 171, 1-((10-Hydroxy-7-(4,4,4-trifluoro-3-methylbutanoyl)-7-azaspiro[4.5]decan-10-yl)methyl)-N,N-dimethyl-6-oxo-4-phenyl-1,6-dihydropyridine-3-carboxamide] | 50 to 250 µM |
| CC(CC(F)F)C(=O)N1CCC(O)(Cn2cc(C(=O)N(C)C)c(-c3ccccc3)cc2=O)C2(CCCC2)C1 (stereo not drawn) [Example 243, 1-((7-(4,4-Difluoro-2-methylbutanoyl)-10-hydroxy-7-azaspiro[4.5]decan-10-yl)methyl)-N,N-dimethyl-6-oxo-4-phenyl-1,6-dihydropyridine-3-carboxamide] | 5 to 50 µM |
| C[C@H](CC1CCCCC1)C(=O)N1CC[C@@](O)(Cn2cc(C(=O)N3CCNCC3)c(-c3ccccc3)cc2=O)C2(CCCC2)C1 [Example 212, 1-(((S)-7-((R)-3-Cyclohexyl-2-methylpropanoyl)-10-hydroxy-7-azaspiro[4.5]decan-10-yl)methyl)-4-phenyl-5-(piperazine-1-carbonyl)pyridin-2(1H)-one] | < 0.5 µM |
| C[C@H](CC(=O)N1CCC(O)(Cn2cc(C(=O)N3CCC(CO)CC3)c(-c3ccccc3)cc2=O)CC1)c1ccccc1 [Example 117, (R)-1-((4-Hydroxy-1-(3-phenylbutanoyl)piperidin-4-yl)methyl)-5-(4-(hydroxymethyl)piperidine-1-carbonyl)-4-phenylpyridin-2(1H)-one] | 0.5 to 5 µM |
| C[C@H](CC1CCCCC1)C(=O)N1CC[C@@](O)(Cn2cc(C(=O)N3CCNCC3)c(C3CC3)cc2=O)C2(CCCC2)C1 [Example 233, 1-(((S)-7-((R)-3-Cyclohexyl-2-methylpropanoyl)-10-hydroxy-7-azaspiro[4.5]decan-10-yl)methyl)-4-cyclopropyl-5-(piperazine-1-carbonyl)pyridin-2(1H)-one] | < 0.5 µM |
| CC(C)C(=O)N1CCC(O)(Cn2cc(C(=O)N(C)C)c(-c3ccccc3)cc2=O)C2(CCCC2)C1 (stereo not drawn) [Example 147, 1-((10-Hydroxy-7-isobutyryl-7-azaspiro[4.5]decan-10-yl)methyl)-N,N-dimethyl-6-oxo-4-phenyl-1,6-dihydropyridine-3-carboxamide] | 50 to 250 µM |
| CN(C)C(=O)c1cn(CC2(O)CCN(C(=O)C(O)Cc3ccccc3)CC23CCCC3)c(=O)cc1-c1ccccc1 (stereo not drawn) [Example 203, 1-((10-Hydroxy-7-(2-hydroxy-3-phenylpropanoyl)-7-azaspiro[4.5]decan-10-yl)methyl)-N,N-dimethyl-6-oxo-4-phenyl-1,6-dihydropyridine-3-carboxamide] | 0.5 to 5 µM |
| CC1(C(=O)N2CCC(O)(Cn3cnc(-c4ccccc4F)cc3=O)CC2)CCCCC1 [Example 42, 6-(2-Fluorophenyl)-3-((4-hydroxy-1-(1-methylcyclohexanecarbonyl)piperidin-4-yl)methyl)pyrimidin-4(3H)-one] | 5 to 50 µM |
| C[C@H](CC(=O)N1CCC(O)(Cn2cc(C#N)c(-c3ccccc3)cc2=O)CC1)c1ccccc1 [Example 114, (R)-1-((4-Hydroxy-1-(3-phenylbutanoyl)piperidin-4-yl)methyl)-6-oxo-4-phenyl-1,6-dihydropyridine-3-carbonitrile] | 5 to 50 µM |
| CC(=O)N1CCN(C(=O)c2cn(CC3(O)CCN(C(=O)[C@H](C)CC4CCCCC4)CC3(C)C)c(=O)cc2-c2ccccc2)CC1 (stereo partly drawn) [Example 169, 5-(4-Acetylpiperazine-1-carbonyl)-1-((1-((R)-3-cyclohexyl-2-methylpropanoyl)-4-hydroxy-3,3-dimethylpiperidin-4-yl)methyl)-4-phenylpyridin-2(1H)-one] | < 0.5 µM |
| C[C@H](CC1CCCCC1)C(=O)N1CCC(O)(Cn2cc(C(=O)N3CCCCC3)c(-c3ccccc3)cc2=O)CC1 [Example 36, (R)-1-((1-(3-Cyclohexyl-2-methylpropanoyl)-4-hydroxypiperidin-4-yl)methyl)-4-phenyl-5-(piperidine-1-carbonyl)pyridin-2(1H)-one] | 0.5 to 5 µM |
| O=C(c1cn(C[C@]2(O)CCN(C(=O)[C@H](CO)CC(F)(F)F)CC23CCCC3)c(=O)cc1-c1ccccc1)N1CCOCC1 [Example 248, 1-(((S)-10-Hydroxy-7-((S)-4,4,4-trifluoro-2-(hydroxymethyl)butanoyl)-7-azaspiro[4.5]decan-10-yl)methyl)-5-(morpholine-4-carbonyl)-4-phenylpyridin-2(1H)-one] | < 0.5 µM |
| CN(C)C(=O)c1cn(C[C@@]2(O)CCN(C(=O)[C@H](CCO)CC3CCCCC3)CC2(C)C)c(=O)cc1-c1ccccc1 [Example 165, 1-(((R)-1-((S)-2-(Cyclohexylmethyl)-4-hydroxybutanoyl)-4-hydroxy-3,3-dimethylpiperidin-4-yl)methyl)-N,N-dimethyl-6-oxo-4-phenyl-1,6-dihydropyridine-3-carboxamide] | 5 to 50 µM |
| CN(C)C(=O)c1cn(CC2(O)CCN(C(=O)C3CCC(F)C3)CC23CCCC3)c(=O)cc1-c1ccccc1 (stereo not drawn) [Example 177, 1-((7-(3-Fluorocyclopentane-1-carbonyl)-10-hydroxy-7-azaspiro[4.5]decan-10-yl)methyl)-N,N-dimethyl-6-oxo-4-phenyl-1,6-dihydropyridine-3-carboxamide] | 50 to 250 µM |
| C[C@H](CC1CCCCC1)C(=O)N1CCC(O)(Cn2cnc(-c3ccccc3)cc2=O)C(C)(C)C1 (mixture of isomers) [Example 50, 3-(((R)-1-((R)-3-Cyclohexyl-2-methylpropanoyl)-4-hydroxy-3,3-dimethylpiperidin-4-yl)methyl)-6-phenylpyrimidin-4(3H)-one and 3-(((S)-1-((R)-3-Cyclohexyl-2-methylpropanoyl)-4-hydroxy-3,3-dimethylpiperidin-4-yl)methyl)-6-phenylpyrimidin-4(3H)-one] | < 0.5 µM |
| C[C@H](CC1CCCCC1)C(=O)N1CCC(O)(Cn2cc(C(=O)N(C)C)c(-c3ccccc3)cc2=O)C2(CCCCC2)C1 (stereo partly drawn) [Example 237, 1-((2-((R)-3-Cyclohexyl-2-methylpropanoyl)-5-hydroxy-2-azaspiro[5.5]undecan-5-yl)methyl)-N,N-dimethyl-6-oxo-4-phenyl-1,6-dihydropyridine-3-carboxamide] | < 0.5 µM |
| Cc1cccc(-c2cc(=O)n(CC3(O)CCN(C(=O)C[C@@H](C)c4ccccc4)CC3)cc2C(=O)N(C)C(C)C)c1 [Example 102, (R)-1-((4-Hydroxy-1-(3-phenylbutanoyl)piperidin-4-yl)methyl)-N-isopropyl-N-methyl-6-oxo-4-(m-tolyl)-1,6-dihydropyridine-3-carboxamide] | 0.5 to 5 µM |
| C[C@H](CC(=O)N1CCC(O)(Cn2cc(-c3ccc(CN)cc3)c(-c3ccccc3)cc2=O)CC1)c1ccccc1 [Example 86, (R)-5-(4-(Aminomethyl)phenyl)-1-((4-hydroxy-1-(3-phenylbutanoyl)piperidin-4-yl)methyl)-4-phenylpyridin-2(1H)-one] | 5 to 50 µM |
| C[C@H](CC1CCCCC1)C(=O)N1CCC(O)(Cn2cnc(-c3ccn[nH]3)cc2=O)C(C)(C)C1 (stereo partly drawn) [Example 133, 3-((1-((R)-3-Cyclohexyl-2-methylpropanoyl)-4-hydroxy-3,3-dimethylpiperidin-4-yl)methyl)-6-(1H-pyrazol-5-yl)pyrimidin-4(3H)-one] | 0.5 to 5 µM |
| C[C@H](CC(=O)N1CCC(O)(Cn2cc(-c3cccc(CN)c3)c(-c3ccccc3)cc2=O)CC1)c1ccccc1 [Example 100, (R)-5-(3-(Aminomethyl)phenyl)-1-((4-hydroxy-1-(3-phenylbutanoyl)piperidin-4-yl)methyl)-4-phenylpyridin-2(1H)-one] | 5 to 50 µM |
| C[C@H](CC1CCCCC1)C(=O)N1CC[C@@](O)(Cn2cc(C(=O)O)c(-c3ccccc3)cc2=O)C2(CCCC2)C1 [Example 253, 1-(((S)-7-((R)-3-Cyclohexyl-2-methylpropanoyl)-10-hydroxy-7-azaspiro[4.5]decan-10-yl)methyl)-6-oxo-4-phenyl-1,6-dihydropyridine-3-carboxylic acid] | < 0.5 µM |
| COc1cc(=O)n(CC2(O)CCN(C(=O)[C@H](C)CC3CCCCC3)CC23CCCC3)cc1C(=O)N(C)C (stereo partly drawn) [Example 242, 1-((7-((R)-3-Cyclohexyl-2-methylpropanoyl)-10-hydroxy-7-azaspiro[4.5]decan-10-yl)methyl)-4-methoxy-N,N-dimethyl-6-oxo-1,6-dihydropyridine-3-carboxamide] | 0.5 to 5 µM |
| C[C@H](CC1CCCCC1)C(=O)N1CCC(O)(Cn2cc(C(=O)N3CCN(C)CC3)c(-c3ccccc3)cc2=O)C(C)(C)C1 (stereo partly drawn) [Example 170, 1-((1-((R)-3-Cyclohexyl-2-methylpropanoyl)-4-hydroxy-3,3-dimethylpiperidin-4-yl)methyl)-5-(4-methylpiperazine-1-carbonyl)-4-phenylpyridin-2(1H)-one] | < 0.5 µM |
